Assay results taken from article PMC8330742, “New benzothieno[2,3-c]pyridines as non-steroidal CYP17 inhibitors: design, synthesis, anticancer screening, apoptosis induction, and in silico ADME profile studies” (Journal of Enzyme Inhibition and Medicinal Chemistry, 2021).

How the values were obtained:
[1] = system: HT-29; test: NCI-60 SRB screen; assay type: cell-based; conditions: Homo sapiens; single dose 10^−5 M; HT-29, Colon cancer; read-out: Growth inhibition (%)
[2] = system: HCC-2998; test: NCI-60 SRB screen; assay type: cell-based, human; conditions: Homo sapiens; single dose 10^−5 M; HCC-2998, Colon cancer; read-out: Growth inhibition (%)
[3] = system: SW-620; test: NCI-60 SRB screen; assay type: cell-based; conditions: Homo sapiens; single dose 10^−5 M; SW-620, Colon cancer; read-out: Growth inhibition (%)
[4] = system: SR; test: NCI-60 SRB screen; assay type: cell-based; conditions: Homo sapiens, single dose 10^−5 M, Leukaemia, read-out: Growth inhibition (%)
[5] = system: IGROV1; test: NCI-60 SRB screen; assay type: cell-based, human; conditions: Homo sapiens, IGROV-1; single dose 10^−5 M; IGROV1, Ovarian cancer; read-out: Growth inhibition (%)
[6] = system: COLO 205; test: NCI-60 SRB screen; assay type: cell-based, human; conditions: Homo sapiens; single dose 10^−5 M; COLO 205, Colon cancer; read-out: Growth inhibition (%)
[7] = system: MOLT-4; test: NCI-60 SRB screen; assay type: cell-based; conditions: Homo sapiens; single dose 10^−5 M; MOLT-4, Leukaemia; read-out: Growth inhibition (%)
[8] = system: panel of 60 cancer cell lines; test: NCI-60 SRB screen, mean or range over the panel; assay type: cell-based, human; conditions: Homo sapiens; mean over the cell lines; single dose 10^−5 M; read-out: Mean growth inhibition (%)
[9] = system: CAKI-1; test: NCI-60 SRB screen; assay type: cell-based, human; conditions: Homo sapiens; single dose 10^−5 M; CAKI-1, Renal cancer; read-out: Growth inhibition (%)
[10] = system: EKVX; test: NCI-60 SRB screen; assay type: cell-based, human; conditions: Homo sapiens, single dose 10^−5 M, Non-small cell lung carcinoma, read-out: Growth inhibition (%)
[11] = system: ACHN; test: NCI-60 SRB screen; assay type: cell-based; conditions: Homo sapiens, single dose 10^−5 M, Renal cancer, read-out: Growth inhibition (%)
[12] = system: 786-0; test: NCI-60 SRB screen; assay type: cell-based; conditions: Homo sapiens; single dose 10^−5 M; 786-0, Renal cancer; read-out: Growth inhibition (%)
[13] = system: HCT-15; test: NCI-60 SRB screen; assay type: cell-based, human; conditions: Homo sapiens; single dose 10^−5 M; HCT-15, Colon cancer; read-out: Growth inhibition (%)
[14] = system: SN12C; test: NCI-60 SRB screen; assay type: cell-based, human; conditions: Homo sapiens, SN12C; single dose 10^−5 M; SN 12 C, Renal cancer; read-out: Growth inhibition (%)
[15] = system: NCI-H460; test: NCI-60 SRB screen; assay type: cell-based, human; conditions: Homo sapiens; single dose 10^−5 M; NCI-H460, Non-small cell lung carcinoma; read-out: Growth inhibition (%)
[16] = system: MDA-MB-435; test: NCI-60 SRB screen; assay type: cell-based; conditions: Homo sapiens, MDA-MB-435, read-out: Growth inhibition (%)
[17] = system: OVCAR-4; test: NCI-60 SRB screen; assay type: cell-based, human; conditions: Homo sapiens; single dose 10^−5 M; OVCAR-4, Ovarian cancer; read-out: Growth inhibition (%)
[18] = system: SK-MEL-2; test: NCI-60 SRB screen; assay type: cell-based, human; conditions: Homo sapiens; single dose 10^−5 M; SK-MEL-2, Melanoma; read-out: Growth inhibition (%)
[19] = system: K-562; test: NCI-60 SRB screen; assay type: cell-based, human; conditions: Homo sapiens, K562; single dose 10^−5 M; K-562, Leukaemia; read-out: Growth inhibition (%)
[20] = system: SK-OV-3; test: NCI-60 SRB screen; assay type: cell-based, human; conditions: Homo sapiens; single dose 10^−5 M; SK-OV-3, Ovarian cancer; read-out: Growth inhibition (%)
[21] = system: KM12; test: NCI-60 SRB screen; assay type: cell-based, human; conditions: Homo sapiens; single dose 10^−5 M; KM12, Colon cancer; read-out: Growth inhibition (%)
[22] = system: UACC-62; test: NCI-60 SRB screen; assay type: cell-based, human; conditions: Homo sapiens; single dose 10^−5 M; UACC-62, Melanoma; read-out: Growth inhibition (%)
[23] = system: HOP-92; test: NCI-60 SRB screen; assay type: cell-based, human; conditions: Homo sapiens; single dose 10^−5 M; HOP-92, Non-small cell lung carcinoma; read-out: Growth inhibition (%)
[24] = system: NCI-H322M; test: NCI-60 SRB screen; assay type: cell-based, human; conditions: Homo sapiens, single dose 10^−5 M, Non-small cell lung carcinoma, read-out: Growth inhibition (%)
[25] = system: RXF 393; test: NCI-60 SRB screen; assay type: cell-based, human; conditions: Homo sapiens; single dose 10^−5 M; RXF 393, Renal cancer; read-out: Growth inhibition (%)
[26] = system: NCI-H226; test: NCI-60 SRB screen; assay type: cell-based, human; conditions: Homo sapiens; single dose 10^−5 M; NCI-H226, Non-small cell lung carcinoma; read-out: Growth inhibition (%)
[27] = system: HCT-116; test: NCI-60 SRB screen; assay type: cell-based, human; conditions: Homo sapiens; single dose 10^−5 M; HCT-116, Colon cancer; read-out: Growth inhibition (%)
[28] = system: NCI-H23; test: NCI-60 SRB screen; assay type: cell-based, human; conditions: Homo sapiens; single dose 10^−5 M; NCI-H23, Non-small cell lung carcinoma; read-out: Growth inhibition (%)
[29] = system: SF-268; test: NCI-60 SRB screen; assay type: cell-based, human; conditions: Homo sapiens; single dose 10^−5 M; SF-268, CNS cancer; read-out: Growth inhibition (%)
[30] = system: OVCAR-3; test: NCI-60 SRB screen; assay type: cell-based, human; conditions: Homo sapiens; single dose 10^−5 M; OVCAR-3, Ovarian cancer; read-out: Growth inhibition (%)
[31] = system: OVCAR-8; test: NCI-60 SRB screen; assay type: cell-based, human; conditions: Homo sapiens; single dose 10^−5 M; OVCAR-8, Ovarian cancer; read-out: Growth inhibition (%)
[32] = system: TK-10; test: NCI-60 SRB screen; assay type: cell-based, human; conditions: Homo sapiens; single dose 10^−5 M; TK-10, Renal cancer; read-out: Growth inhibition (%)
[33] = system: HOP-62; test: NCI-60 SRB screen; assay type: cell-based, human; conditions: Homo sapiens; single dose 10^−5 M; HOP-62, Non-small cell lung carcinoma; read-out: Growth inhibition (%)
[34] = system: NCI-H522; test: NCI-60 SRB screen; assay type: cell-based, human; conditions: Homo sapiens; single dose 10^−5 M; NCI-H522, Non-small cell lung carcinoma; read-out: Growth inhibition (%)
[35] = system: HL-60(TB); test: NCI-60 SRB screen; assay type: cell-based, human; conditions: Homo sapiens; single dose 10^−5 M; HL-60(TB), Leukaemia; read-out: Growth inhibition (%)
[36] = system: M14; test: NCI-60 SRB screen; assay type: cell-based, human; conditions: Homo sapiens; single dose 10^−5 M; M14, Melanoma; read-out: Growth inhibition (%)
[37] = system: UACC-257; test: NCI-60 SRB screen; assay type: cell-based, human; conditions: Homo sapiens; single dose 10^−5 M; UACC-257, Melanoma; read-out: Growth inhibition (%)
[38] = system: SF-295; test: NCI-60 SRB screen; assay type: cell-based, human; conditions: Homo sapiens; single dose 10^−5 M; SF-295, CNS cancer; read-out: Growth inhibition (%)
[39] = system: SK-MEL-5; test: NCI-60 SRB screen; assay type: cell-based, human; conditions: Homo sapiens; single dose 10^−5 M; SK-MEL-5, Melanoma; read-out: Growth inhibition (%)
[40] = system: UO-31; test: NCI-60 SRB screen; assay type: cell-based, human; conditions: Homo sapiens; single dose 10^−5 M; UO-31, Renal cancer; read-out: Growth inhibition (%)
[41] = system: NCI/ADR-RES; test: NCI-60 SRB screen; assay type: cell-based, human; conditions: Homo sapiens, single dose 10^−5 M, Ovarian cancer, read-out: Growth inhibition (%)
[42] = system: SK-MEL-28; test: NCI-60 SRB screen; assay type: cell-based; conditions: Homo sapiens; single dose 10^−5 M; SK-MEL-28, Melanoma; read-out: Growth inhibition (%)
[43] = system: A549/ATCC; test: NCI-60 SRB screen; assay type: cell-based, human; conditions: Homo sapiens, single dose 10^−5 M, Non-small cell lung carcinoma, read-out: Growth inhibition (%)
[44] = system: LOX IMVI; test: NCI-60 SRB screen; assay type: cell-based, human; conditions: Homo sapiens, single dose 10^−5 M, Melanoma, read-out: Growth inhibition (%)

CCN1CCN(C2=C(C#N)c3c(sc4c(F)cccc34)C(c3cccc([N+](=O)[O-])c3)N2)CC1 (stereo not shown) [Compound 8d, 4-Cyano-3-(4-ethylpiperazin-1-yl)-8-fluoro-1-(3-nitrophenyl)-1,2-dihydro [1]benzothieno[2,3-c]pyridine]
inhibition at 10 µM [1]: -4.51% | inhibition at 10 µM [2]: -12.2% | inhibition at 10 µM [3]: 3.43% | inhibition at 10 µM [4]: 11.8% | inhibition at 10 µM [5]: 23.7% | inhibition at 10 µM [6]: -5.97% | inhibition at 10 µM [7]: 8.62% | inhibition at 10 µM [8]: 1.33% | inhibition at 10 µM [9]: 25.2% | inhibition at 10 µM [10]: 12.5% | inhibition at 10 µM [11]: 9.28% | inhibition at 10 µM [12]: -9.68% | inhibition at 10 µM [13]: -6.34% | inhibition at 10 µM [14]: 1.95% | inhibition at 10 µM [15]: -1.12% | inhibition at 10 µM [16]: -7.84% | inhibition at 10 µM [17]: -0.52% | inhibition at 10 µM [18]: 1.77% | inhibition at 10 µM [19]: 4.11% | inhibition at 10 µM [20]: 11.5% | inhibition at 10 µM [21]: -0.49% | inhibition at 10 µM [22]: 6.81% | inhibition at 10 µM [23]: 18.9% | inhibition at 10 µM [24]: 1.85% | inhibition at 10 µM [25]: -3.67% | inhibition at 10 µM [26]: 15.7% | inhibition at 10 µM [27]: 1.31% | inhibition at 10 µM [28]: 3.9% | inhibition at 10 µM [29]: 4.87% | inhibition at 10 µM [30]: -2.65% | inhibition at 10 µM [31]: -1.56% | inhibition at 10 µM [32]: -37% | inhibition at 10 µM [33]: 16.1% | inhibition at 10 µM [34]: 4.68% | inhibition at 10 µM [35]: -15.6% | inhibition at 10 µM [36]: 4.65% | inhibition at 10 µM [37]: -23.7% | inhibition at 10 µM [38]: -1.19% | inhibition at 10 µM [39]: -10.7% | inhibition at 10 µM [40]: 33.5% | inhibition at 10 µM [41]: -4.88% | inhibition at 10 µM [42]: -15.8% | inhibition at 10 µM [43]: -2.72% | inhibition at 10 µM [44]: 4.73%

N#CC1=C(N2CCOCC2)NC(c2cccc([N+](=O)[O-])c2)c2sc3c(F)cccc3c21 (stereo not shown) [Compound 8e, 4-Cyano-3-(4-morpholino)-8-fluoro-1-(3-nitrophenyl)-1,2-dihydro [1]benzothieno[2,3-c]pyridine]
inhibition at 10 µM [1]: -5.64% | inhibition at 10 µM [2]: -8.91% | inhibition at 10 µM [3]: 5.32% | inhibition at 10 µM [4]: 9.91% | inhibition at 10 µM [5]: 25.4% | inhibition at 10 µM [6]: -17.4% | inhibition at 10 µM [7]: 5.54% | inhibition at 10 µM [8]: 1.3% | inhibition at 10 µM [9]: 27.4% | inhibition at 10 µM [10]: 9.9% | inhibition at 10 µM [11]: 11.9% | inhibition at 10 µM [12]: -9.79% | inhibition at 10 µM [13]: -6.78% | inhibition at 10 µM [14]: 6.28% | inhibition at 10 µM [15]: 2.61% | inhibition at 10 µM [16]: -7.7% | inhibition at 10 µM [17]: -2.02% | inhibition at 10 µM [18]: 0.38% | inhibition at 10 µM [19]: 9.66% | inhibition at 10 µM [20]: 7.67% | inhibition at 10 µM [21]: 0.52% | inhibition at 10 µM [22]: 6.7% | inhibition at 10 µM [23]: 11.8% | inhibition at 10 µM [24]: 3.9% | inhibition at 10 µM [25]: -2.93% | inhibition at 10 µM [26]: 10.4% | inhibition at 10 µM [27]: 8.86% | inhibition at 10 µM [28]: 2.35% | inhibition at 10 µM [29]: 7.51% | inhibition at 10 µM [30]: 0.17% | inhibition at 10 µM [31]: 4.28% | inhibition at 10 µM [32]: -59.3% | inhibition at 10 µM [33]: 18% | inhibition at 10 µM [34]: 8.18% | inhibition at 10 µM [35]: -16.5% | inhibition at 10 µM [36]: -1.97% | inhibition at 10 µM [37]: -6.7% | inhibition at 10 µM [38]: -6.46% | inhibition at 10 µM [39]: -14.6% | inhibition at 10 µM [40]: 38.4% | inhibition at 10 µM [41]: -0.28% | inhibition at 10 µM [42]: -10.6% | inhibition at 10 µM [43]: 0.1% | inhibition at 10 µM [44]: 3.9%
